What was measured:
[1] = target: T1, human sphingosine-1-phosphate receptor 1 (S1P1) (Homo sapiens, UniProt P21453); assay: Inhibition of cAMP production (HTRF cAMP HiRange), S1P1 CHO-K1 cells; format: cell-based; conditions: for Emax: CHO-K1, efficacy normalized to maximum efficacy of fingolimod, read-out: hS1P1 CAMP SPAN; for EC50: read-out: hS1P1 CAMP pEC50 (converted)
Summary of the method: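 CHO-K1 cells co-expressing human S1P1 (C-terminal ProLink tag) and EA-β-arrestin2, plated overnight; after 30 min compound incubation at 37 °C, intracellular cAMP measured by HTRF TR-FRET following 1 h at room temperature. Values normalized to fingolimod.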
Target sequence in this assay (P21453 whole entry): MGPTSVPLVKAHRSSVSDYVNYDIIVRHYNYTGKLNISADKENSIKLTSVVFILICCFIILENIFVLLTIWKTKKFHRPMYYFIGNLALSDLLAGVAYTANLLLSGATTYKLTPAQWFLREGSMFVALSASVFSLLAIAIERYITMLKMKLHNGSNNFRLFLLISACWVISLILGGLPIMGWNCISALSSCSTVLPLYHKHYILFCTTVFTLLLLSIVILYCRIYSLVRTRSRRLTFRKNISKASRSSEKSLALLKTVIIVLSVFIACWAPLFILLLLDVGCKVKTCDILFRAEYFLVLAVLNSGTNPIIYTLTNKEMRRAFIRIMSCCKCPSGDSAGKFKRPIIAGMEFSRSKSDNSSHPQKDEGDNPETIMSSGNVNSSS

[2] = target: T1, human sphingosine-1-phosphate receptor 1 (S1P1); assay: β-Arrestin2 recruitment assay (PathHunter), S1P1 CHO-K1 cells; format: cell-based; conditions: for Emax: efficacy normalized to maximum efficacy of fingolimod, read-out: hS1P1 B-arrestin2 SPAN; for EC50: read-out: hS1P1 B-arrestin2 pEC50 (converted)
Method: Stable clonal Chinese hamster ovary K1 (CHO-K1) cells co-expressing EA-β-arrestin2 and the human sphingosine-1-phosphate receptor 1 (NM_001400, S1P1) with a C-terminal Prolink™ tag were purchased from DiscoverX corporation (Cat #: 93-0207C2).
Cell lines were cultured in AssayComplete™ Media 6 (DiscoverX Corporation, Cat #: 920018GF2) at 37° C. and 5% CO2 in a humidified CO2 and temperature-controlled incubator. To begin assay plating, cells were washed with Dulbecco's phosphate buffered saline (CellGro, Cat #: 21-031-CV) and lifted from the culturing flask by incubation (37° C., 5 min) with CellStripper (Cellgro, Cat #: 25-056-CI). […] Plated cells were incubated overnight at 37° C. and 5% CO2 in a humidified CO2 and temperature-controlled incubator.
Agonist-promoted β-arrestin2 recruitment to the sphingosine-1-phosphate 1 receptor was determined using the β-arrestin PathHunter® Detection kit (DiscoverX Corporation, Cat #: 93-0001). […] In cells that stably express these fusion proteins, stimulation with a cognate agonist results in the interaction of β-arrestin2 and the Prolink™-tagged GPCR. This allows the complementation of the two β-galactosidase fragments and results in the formation of a functional enzyme with β-galactosidase activity. […] Following a 60 minute incubation at 37° C. and 5% CO2 in a humidified CO2 and temperature-controlled incubator, the components of the β-arrestin PathHunter® Detection kit were added as per the manufacturer's instructions. After an hour incubation at room temperature, plates were analyzed by a BMG PheraStar microplate reader.
These values are normalized to fingolimod, a known agonist of the sphingosine-1-phosphate 1 receptor.
Target sequence in this assay (P21453 whole entry): as above
Target sequence in this assay (P32121 whole entry partner): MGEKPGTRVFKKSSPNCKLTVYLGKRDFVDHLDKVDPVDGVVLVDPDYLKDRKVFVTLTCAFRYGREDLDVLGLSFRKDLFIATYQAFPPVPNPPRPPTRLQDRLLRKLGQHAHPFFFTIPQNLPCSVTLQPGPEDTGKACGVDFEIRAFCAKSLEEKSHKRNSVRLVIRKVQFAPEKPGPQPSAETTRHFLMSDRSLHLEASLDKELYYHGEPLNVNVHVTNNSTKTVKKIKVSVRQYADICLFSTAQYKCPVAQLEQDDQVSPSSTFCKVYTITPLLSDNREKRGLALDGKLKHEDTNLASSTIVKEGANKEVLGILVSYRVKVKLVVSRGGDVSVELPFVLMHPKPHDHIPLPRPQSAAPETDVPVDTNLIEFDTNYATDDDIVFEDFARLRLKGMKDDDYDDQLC

[3] = inhibition of cAMP production, S1P1
[4] = inhibition of cAMP production, potency
[5] = CHO-K1, β-arrestin2 recruitment
[6] = β-arrestin2 recruitment, potency

Row | Emax [1] [%] | EC50 [1, 3] [nM] | Emax ([2]; CHO-K1) [%] | EC50 ([2]; β-arrestin2 recruitment, S1P1) [nM] | Emax ([1]; inhibition of cAMP production) [%] | EC50 [1, 4] [nM] | Emax [2, 5] [%] | EC50 [2, 6] [nM] | SMILES | hS1P1 B-arrestin2 pEC50 ([2]; β-arrestin2 recruitment, S1P1)
1 | > 75 | > 316 | < 75 | > 10000 |  |  |  |  | O=C1CNc2ccc(-c3nc(-c4cccnc4)no3)cc2N1 [Compound 629, 7-[3-(pyridin-3-yl)-1,2,4-oxadiazol-5-yl]-1,2,3,4-tetra-hydroquinoxalin-2-one] | 
2 | < 75 | > 316 | > 75 | > 10000 |  |  |  |  | Cc1ccccc1-c1nc(-c2ccc3c(c2)nnn3CC(C)(C)CO)no1 [Compound 505, 2,2-dimethyl-3-(5-(5-(o-tolyl)-1,2,4-oxadiazol-3-yl)-1H-benzo[d][1,2,3]triazol-1-yl)propan-1-ol] | 
3 | < 75 | > 316 | < 75 | > 10000 |  |  |  |  | COc1ccccc1-c1csc(-c2ccc3c(ccn3C(C)C)n2)n1 [Compound 411, 2-(1-isopropyl-1H-pyrrolo[3,2-b]pyridin-5-yl)-4-(2-methoxyphenyl)thiazole] | 
4 | < 75 | > 316 | < 75 | < 10000 |  |  |  |  | CC(C)n1nnc2cc(-c3cc(-c4ccccc4F)c[nH]3)ccc21 [Compound 542, 5-[4-(2-fluorophenyl)-1H-pyrrol-2-yl]-1-(propan-2-yl)-1H-1,2,3-benzotriazole] | 
5 |  |  |  |  | < 75 | > 316 | < 75 | > 10000 | Brc1ccccc1-c1nc(-c2ccc3c(c2)nnn3Cc2ccccc2)no1 [Compound 52, 3-(1-benzyl-1H-benzo[d][1,2,3]triazol-5-yl)-5-(2-bromophenyl)-1,2,4-oxadiazole] | 
6 | < 75 | > 316 | < 75 | > 10000 |  |  |  |  | Cn1cnc2ccc(-c3nnc(-c4ccc(NC(C)(C)CO)c(C#N)c4)o3)cc21 [Compound 634, 2-[(1-hydroxy-2-methylpropan-2-yl)amino]-5-[5-(1-methyl-1H-1,3-benzodiazol-6-yl)-1,3,4-oxadiazol-2-yl]benzonitrile] | 
7 |  |  |  |  | < 75 | > 316 | < 75 | > 10000 | CCC1(CC)CC(=O)c2cc(-c3nc(-c4ccc(N(C)C)cc4)no3)ccc2O1 [Compound 60, 6-(3-(4-(dimethyl-amino)phenyl)-1,2,4-oxadiazol-5-yl)-2,2-diethylchroman-4-one] | 
8 |  |  |  |  | > 75 | > 316 | > 75 | > 10000 | CC(C)Oc1ccccc1-c1noc(-c2ccc3c(c2)nnn3C(C)C)n1 [Compound 62, 3-(2-isopropoxyphenyl)-5-(1-isopropyl-1H-benzo[d][1,2,3]triazol-5-yl)-1,2,4-oxadiazole] | 
9 | > 75 | > 316 | < 75 | < 10000 |  |  |  |  | CC(C)(CO)Cn1nnc2cc(-c3noc(-c4cnccc4C(F)(F)F)n3)ccc21 [Compound 529, 2,2-dimethyl-3-(5-(5-(4-(trifluoro-methyl)pyridin-3-yl)-1,2,4-oxadiazol-3-yl)-1H-benzo[d][1,2,3]triazol-1-yl)propan-1-ol] | 
10 |  |  |  |  | > 75 | < 316 | > 75 | < 10000 | COc1ccccc1-c1noc(-c2ccc3c(cnn3C(C)C)c2)n1 [Compound 370, 5-(1-isopropyl-1H-indazol-5-yl)-3-(2-methoxyphenyl)-1,2,4-oxadiazole] | 
11 |  |  |  |  | < 75 | < 316 | < 75 | < 10000 | Oc1ccc(-c2noc(-c3ccc4c(c3)nnn4C3CCCC3)n2)cc1 [Compound 13, 4-[5-(1-cyclopentyl-1H-1,2,3-benzotriazol-5-yl)-1,2,4-oxadiazol-3-yl]phenol] | 
12 | > 75 | < 316 | > 75 | < 10000 |  |  |  |  | CC(C)Nc1ccc(-c2nnc(-c3ccc4oc(=O)[nH]c4c3)o2)cc1C#N [Compound 637, 5-[5-(2-oxo-2,3-dihydro-1,3-benzoxazol-5-yl)-1,3,4-oxadiazol-2-yl]-2-[(propan-2-yl)amino]benzonitrile] | 
13 |  |  |  |  | < 75 | > 316 | < 75 | > 10000 | O=C1CCOc2ccc(-c3nc(-c4ccncc4)no3)cc21 [Compound 57, 6-[3-(pyridin-4-yl)-1,2,4-oxadiazol-5-yl]-3,4-dihydro-2H-1-benzopyran-4-one] | 
14 |  |  |  |  | < 75 | > 316 | < 75 | > 10000 | CCC1(CC)CC(=O)c2cc(-c3nc(-c4cccnc4O)no3)ccc2O1 [Compound 258, 2,2-diethyl-6-(3-(2-hydroxypyridin-3-yl)-1,2,4-oxadiazol-5-yl)chroman-4-one] | 
15 | > 75 | > 316 | < 75 | > 10000 |  |  |  |  | Cc1ccccc1-c1csc(-c2cnc3c(ccn3C(C)C)c2)n1 [Compound 407, 2-(1-isopropyl-pyrrolo[2,3-b]pyridin-5-yl)-4-(o-tolyl)thiazole] | 
16 | < 75 | < 316 | < 75 | > 10000 |  |  |  |  | CC(C)n1ccc2cc(-c3nc(-c4ccccc4F)cs3)cnc21 [Compound 402, 4-(2-fluorophenyl)-2-(1-isopropyl-1H-pyrrolo[2,3-b]pyridin-5-yl)thiazole] | 
17 |  |  |  |  | < 75 | > 316 | < 75 | > 10000 | CC(C)n1nnc2cc(-c3noc(C45CC6CC(CC(C6)C4)C5)n3)ccc21 [Compound 200, 5-[5-(adamantan-1-yl)-1,2,4-oxadiazol-3-yl]-1-(propan-2-yl)-1H-1,2,3-benzotriazole] | 
18 | > 75 | > 316 | < 75 | > 10000 |  |  |  |  | CC(C)(CO)Cn1nnc2cc(-c3noc(-c4ccncc4C(F)(F)F)n3)ccc21 [Compound 528, 2,2-dimethyl-3-(5-(5-(3-(trifluoro-methyl)pyridin-4-yl)-1,2,4-oxadiazol-3-yl)-1H-benzo[d][1,2,3]triazol-1-yl)propan-1-ol] | 
19 | < 75 | > 316 | < 75 | > 10000 |  |  |  |  | CC(C)(O)Cn1nnc2cc(-c3nc(-c4ccc5nonc5c4)no3)ccc21 [Compound 590, 1-{5-[3-(2,1,3-benzoxa-diazol-5-yl)-1,2,4-oxadiazol-5-yl]-1H-1,2,3-benzotriazol-1-yl}-2-methylpropan-2-ol] | 
20 | > 75 | < 316 | < 75 | > 10000 |  |  |  |  | CCC1(CC)CC(=O)c2cc(-c3nc(-c4ccc5ncoc5c4)no3)ccc2O1 [Compound 622, 6-(3-(benzo[d]oxazol-6-yl)-1,2,4-oxadiazol-5-yl)-2,2-diethyl-chroman-4-one] | 
21 |  |  |  |  | < 75 | > 316 | < 75 | > 10000 | CCCn1nnc2cc(-c3nc(-c4ccc(C(F)(F)F)c(F)c4)no3)ccc21 [Compound 193, 5-{3-[3-fluoro-4-(trifluoromethyl)phenyl]-1,2,4-oxadiazol-5-yl}-1-propyl-1H-1,2,3-benzotriazole] | 
22 | < 75 | > 316 | < 75 | > 10000 |  |  |  |  | COc1cc(NC(C)=O)ccc1-c1noc(-c2ccc3nonc3c2)n1 [Compound 533, N-{4-[5-(2,1,3-benzoxadiazol-5-yl)-1,2,4-oxadiazol-3-yl]-3-methoxy-phenyl}acetamide] | 
23 | > 75 | < 316 | < 75 | < 10000 |  |  |  |  | CCC1(CC)CC(=O)c2cc(-c3noc(-c4ccc(NC(C)C)c(C#N)c4)n3)ccc2O1 [Compound 443, 5-(3-(2,2-diethyl-4-oxochroman-6-y)-1,2,4-oxadiazol-5-yl)-2-(isopropyl-amino)benzonitrile] | 
24 | > 75 | < 316 | < 75 | < 10000 |  |  |  |  | CC(C)Nc1ccc(-c2ncc(-c3ccc4[nH]c(=O)[nH]c4c3)cn2)cc1C#N [Compound 628, 2-(isopropylamino)-5-(5-(2-oxo-2,3-dihydro-1H-benzo[d]imidazol-5-yl)pyrimidin-2-yl)benzonitrile] | 

Row | SMILES | Emax [1] [%] | EC50 [1, 3] [nM] | Emax ([2]; CHO-K1) [%] | EC50 ([2]; β-arrestin2 recruitment, S1P1) [nM] | Emax ([1]; inhibition of cAMP production) [%] | EC50 [1, 4] [nM] | Emax [2, 5] [%] | EC50 [2, 6] [nM] | hS1P1 B-arrestin2 pEC50 ([2]; β-arrestin2 recruitment, S1P1)
25 | COc1ccc(-c2noc(-c3ccc4c(c3)nnn4CC(C)(C)O)n2)c(C)c1 [Compound 647, 1-{5-[3-(4-methoxy-2-methylphenyl)-1,2,4-oxadiazol-5-yl]-1H-1,2,3-benzotriazol-1-yl}-2-methylpropan-2-ol] |  | < 316 |  |  |  |  |  |  | >5

Source: US20230114241A1, “METHODS OF TREATING EPILEPSY USING THE SAME” (Trevena, Inc., priority 2019, published 2023)
